Assay results reported in US20250019369A1, “N-(4-aminocyclohexyl)pyrimidine-4-carboxamide derivatives as CD38 inhibitors” (Cerevance, Inc., priority 2021, published 2025).

Columns and labels:
Recombinant human CD38 = Recombinant human CD38 (Homo sapiens (Human), UniProt P28907); test: Human CD38 hydrolase assay (fluorescence, ε-NAD substrate); assay type: biochemical; settings: recombinant human CD38 0.8 nM, 4 μM ε-NAD, 30 min preincubation at 25° C., pH 7.4
Protocol: (§1) The ability of test compounds to inhibit human CD38 hydrolase activity was measured in a fluorescence-based assay using non-physiological NAD^+ substrate analogue 1,N^6-etheno NAD^+ (ε-NAD). Recombinant human CD38 (0.8 nM) was preincubated with test compounds in 384-well black microplates for 30 min at 25° C. in PBS (—Ca^2+/Mg^2+) containing 0.005% BSA (pH 7.4). CD38 hydrolase activity was initiated by addition of 4 μM ε-NAD, which yields the fluorescent product 1,N^6-etheno ADP-ribose. Formation of fluorescent product was followed using ClarioStar Plus (BMG) microplate reader by reading fluorescence (excitation λ=300 nm; emission λ=410 nm) at two time points, one immediately after substrate addition (t=0) and one at 10 min (t=10).
(§2) Data was analysed by subtracting the values detected at t=0 from t=10 to correct for variation in baseline fluorescence. Fluorescence values were converted to percent inhibition using the average of high signal (CD38 and ε-NAD) and low signal (CD38 and ε-NAD in the presence of a tool CD38 inhibitor) control wells. IC50 values were determined from a 10-point, half log concentration response curve with a four-parameter logistic equation.

Recombinant mouse CD38 = Recombinant mouse CD38 (Mus musculus (Mouse), UniProt P56528); test: Mouse CD38 hydrolase assay (fluorescence, ε-NAD substrate); assay type: biochemical; settings: recombinant mouse CD38 0.4 nM, 12 μM ε-NAD, 30 min preincubation at 25° C., pH 7.4
Protocol: as §1, with “inhibit mouse” for “inhibit human”, “Recombinant mouse” for “Recombinant human”, “CD38 (0.4” for “CD38 (0.8”, “of 12” for “of 4”, “at 6” for “at 10”, “min (t=6).” for “min (t=10).”
as §2, with “t=6” for “t=10”, “fluorescence, and fluorescence” for “fluorescence. Fluorescence”

[1] = Tissue binding assay, brain homogenate (equilibrium dialysis); assay type: in vitro ADME; settings: dialysis 4 hours at 37° C., dilution factor 4
Protocol: (§3) Buffer preparation. A basic solution was prepared by dissolving 14.2 g/L Na2HPO4 and 8.77 g/L NaCl in deionized H2O. An acidic solution was prepared by dissolving 15.6 g/L NaH2PO4·2H2O and 8.77 g/L NaCl in deionized H2O. Using the acidic solution, the basic solution was then titrated to pH 7.4±0.1 and stored at 4° C. for up to 1 month. The stop solution was 100% CH3CN containing 200 ng/mL tolbutamide, 200 ng/mL labetalol and 50 ng/mL metformin.
(§4) Test method. Dialysis membrane strips were soaked in ultra-pure water at room temperature for ˜1 hour. Each membrane strip containing 2 membranes was separated and soaked in 20:80 EtOH/H2O (v/v) for ˜20 min, after which they were ready for use or were stored in the solution at 2-8° C. for up to 1 month. Prior to the experiment, the membrane was rinsed and soaked for 20 min in ultra-pure water. On the day of experiment, brain homogenate was thawed in a water bath at room temperature and incubated at 37° C. for 10 min before use. Test and control compounds were dissolved in DMSO to achieve 10 mM stock solutions. DMSO working solutions were prepared at 400 μM by diluting 10 μL of stock solution. To prepare the time zero (t=0) samples to be used for recovery determination, 50 μL aliquots of loading matrix were transferred in triplicate to the sample collection plate. The samples were immediately matched with opposite blank buffer to obtain a final volume of 100 μL of 1:1 matrix/dialysis buffer (v/v) in each well. 500 μL of stop solution were added to these t=0 samples. They were then stored at 2-8° C. pending further processes along with other post-dialysis samples. To load the dialysis device, an aliquot of 150 μL of the loading matrix was transferred to the donor side of each dialysis well in triplicate, and 150 μL of the dialysis buffer was loaded to the receiver side of the well. The dialysis plate was placed in a humidified incubator at 37° C. with 5% CO2 on a shaking platform that rotated slowly (about 100 rpm) for 4 hours. At the end of the dialysis, aliquots of 50 μL of samples were taken from both the buffer side and the matrix side of the dialysis device. These samples were transferred into new 96-well plates. Each sample was mixed with an equal volume of opposite blank matrix (buffer or matrix) to reach a final volume of 100 μL of 1:1 matrix/dialysis buffer (v/v) in each well. All samples were further processed by adding 500 μL of stop solution containing internal standards. The mixture was vortexed and centrifuged at 4000 rpm for about 20 min. An aliquot of 100 μL of supernatant of all the samples was then removed for LC-MS/MS analysis. The single blank samples were prepared by transferring 50 μL of blank matrix to a 96-well plate and adding 50 μL of blank PBS buffer to each well. Then the matrix-matched samples were further processed by adding 500 μL of stop solution containing internal standards, following the same sample processing method as the dialysis samples.
(§5) Data analysis. The % undiluted unbound, % undiluted bound and % recovery were calculated using the following equations:
(§6) % Undiluted Unbound=100*1/D/((1/(F/T)−1)+1/D)
(§7) % Undiluted Bound=100−% Undiluted Unbound
(§8) where F is the analyte concentration or peak area ratio of analyte/internal standard on the buffer (receiver) side of the membrane; T is the analyte concentration or peak area ratio of analyte/internal standard on the matrix (donor) side of the membrane; To is the analyte concentration or the peak area ratio of analyte/internal standard in the loading matrix sample at time zero; and D is the dilution factor determined as 4 in this assay.

[2] = Tissue binding assay, plasma (equilibrium dialysis); assay type: in vitro ADME; settings: dialysis 4 hours at 37° C.
Protocol: [The source words this procedure for another target and reports this target under the same test.] as §3, §4, §5, §6, §7, §8

Chain of Recombinant mouse CD38 (P56528 whole entry): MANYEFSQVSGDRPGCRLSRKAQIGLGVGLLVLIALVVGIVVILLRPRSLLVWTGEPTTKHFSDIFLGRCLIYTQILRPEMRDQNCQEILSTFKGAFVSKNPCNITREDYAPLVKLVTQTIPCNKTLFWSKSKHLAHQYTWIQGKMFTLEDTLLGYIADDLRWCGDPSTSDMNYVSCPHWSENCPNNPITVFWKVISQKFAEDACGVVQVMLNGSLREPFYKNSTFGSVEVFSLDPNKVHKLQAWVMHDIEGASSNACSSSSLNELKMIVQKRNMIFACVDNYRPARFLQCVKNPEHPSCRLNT
Chain of Recombinant human CD38 (P28907 whole entry): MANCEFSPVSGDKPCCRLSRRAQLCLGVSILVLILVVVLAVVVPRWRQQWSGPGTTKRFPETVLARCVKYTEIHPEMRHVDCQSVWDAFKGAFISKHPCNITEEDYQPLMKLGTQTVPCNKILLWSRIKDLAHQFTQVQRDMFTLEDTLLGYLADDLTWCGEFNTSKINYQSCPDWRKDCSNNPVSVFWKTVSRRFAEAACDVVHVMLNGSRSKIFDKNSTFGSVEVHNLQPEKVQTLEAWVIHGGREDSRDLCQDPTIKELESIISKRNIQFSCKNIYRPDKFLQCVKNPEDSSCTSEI

Cc1cc(C(=O)N[C@H]2CC[C@H](N3CCC(F)(F)C3)CC2)nc(-n2ccnc2)n1 [Example 10, N-((1r,4r)-4-(3,3-difluoropyrrolidin-1-yl)cyclohexyl)-2-(1H-imidazol-1-yl)-6-methyl-pyrimidine-4-carboxamide]
IC50 (Recombinant human CD38): ≤ 40 nM
IC50 (Recombinant mouse CD38): ≤ 40 nM
Mouse brain (% unbound) [1]: 9.7 % unbound
Mouse plasma (% unbound) [2]: 10.6 % unbound

Cc1cc(C(=O)N[C@H]2CC[C@H](NCC(F)(F)F)CC2)nc(-n2ccnc2)n1 [Example 1, 2-(1H-imidazol-1-yl)-6-methyl-N-((1r,4r)-4-((2,2,2-trifluoroethyl)amino)cyclohexyl)pyrimidine-4-carboxamide]
IC50 (Recombinant human CD38): ≤ 40 nM
IC50 (Recombinant mouse CD38): ≤ 40 nM
Mouse brain (% unbound) [1]: 68.9 % unbound
Mouse plasma (% unbound) [2]: 13.0 % unbound

Cc1cc(C(=O)N[C@H]2CC[C@H](NC(C)(C)C(F)(F)F)CC2)nc(-n2ccnc2)n1 [Example 21, 2-(1H-imidazol-1-yl)-6-methyl-N-((1r,4r)-4-((1,1,1-trifluoro-2-methylpropan-2-yl)amino)cyclohexyl)pyrimidine-4-carboxamide]
IC50 (Recombinant human CD38): ≤ 100 nM
IC50 (Recombinant mouse CD38): ≤ 40 nM
Mouse brain (% unbound) [1]: 3.6 % unbound
Mouse plasma (% unbound) [2]: 4.1 % unbound

O=C(N[C@H]1CC[C@H](NCC(F)F)CC1)c1cc(C2CC2)nc(-n2ccnc2)n1 [Example 3, 6-cyclopropyl-N-((1r,4r)-4-((2,2-difluoroethyl)amino)cyclohexyl)-2-(1H-imidazol-1-yl)pyrimidine-4-carboxamide]
IC50 (Recombinant human CD38): ≤ 40 nM
IC50 (Recombinant mouse CD38): ≤ 40 nM
Mouse brain (% unbound) [1]: 13.5 % unbound
Mouse plasma (% unbound) [2]: 7.4 % unbound

Cc1cc(C(=O)N[C@H]2CC[C@H](NCC(F)F)CC2)nc(-n2ccnc2)n1 [Example 2, N-((1r,4r)-4-((2,2-difluoroethyl)amino)cyclohexyl)-2-(1H-imidazol-1-yl)-6-methyl-pyrimidine-4-carboxamide]
IC50 (Recombinant human CD38): ≤ 40 nM
IC50 (Recombinant mouse CD38): ≤ 40 nM
Mouse brain (% unbound) [1]: 63.4 % unbound
Mouse plasma (% unbound) [2]: 22.7 % unbound
